One series addresses T1, human NK1 receptors (Homo sapiens, UniProt P25103).
T1 construct: expressed in transfected cells; host or cells: CHO cells infected using the Semliki virus expression system; membrane suspension used
Nature of the series: NK1 receptor binding, [3H]substance P displacement. The conditions noted are these: human NK1 receptor in CHO cells, [3H]substance P 0.6 nM; read-out: affinity to the NK-1 receptor, given as pKi (converted). The protocol: The compounds were investigated in accordance with the tests given hereinafter. The affinity of test compounds for the NK1 receptor was evaluated at human NK1 receptors in CHO cells infected with the human NK1 receptor (using the Semliki virus expression system) and radiolabelled with [^3H]substance P (final concentration 0.6 nM). Binding assays were performed in HEPES buffer (50 mM, pH 7.4) containing BSA (0.04%) leupeptin (8 μg/ml), MnCl2 (3 mM) and phosphoramidon (2 μM). Binding assays consisted of 250 μl of membrane suspension (1.25×10^5 cells/assay tube), […] of buffer of displacing agent and 125 μl of [^3H]substance P. Displacement curves were determined with at least seven concentrations of the compound. The assay tubes were incubated for 60 min at room temperature after which time the tube contents were rapidly filtered under vacuum through GF/C filters presoaked for 60 min with PEI (0.3%) with 2×2 ml washes of HEPES buffer (50 mM, pH 7.4). The radioactivity retained on the filters was measured by scintillation counting. All assays were performed in triplicate in at least 2 separate experiments.
The affinity to the NK-1 receptor, given as pKi is described in the table below: […]

The nature of series [1]: Metabolic stability in vitro in microsomes. The series is classed as in vitro ADME. The following applies: in comparison with 2-(3,5-bis-trifluoromethyl-phenyl)-N-methyl-N-[6-(4-methyl-piperazin-1-yl)-4-o-tolyl-pyridin-3-yl]-isobutyramide.
Series [2] is described as follows: PAMPA PSR4p permeability assay. The format is in vitro ADME. The conditions noted are these: for Acceptor (sample distribution) / Donor (sample distribution) / Membrane (sample distribution) / PE (permeation constant) / PE class: pH 6.5, DMSO stock solution. The procedure:
The permeability has been searched by the PAMPA PSR4p assay, which is based on 96 well microplates. The permeability is measured using a “sandwich” construction. A filterplate is coated with phospholipids (membrane) and placed into a donor plate containing a drug/buffer solution. Finally the filterplate is filled with buffer solution (acceptor). The donor concentration is measured at t-start (reference) and compared with the donor and acceptor concentration after a certain time t-end.
The following setup is used for the PAMPA PSR4p assay: • Donor: 0.05 M MOPSO buffer at ph 6.5+0.5% (w/v) Glyco cholic acid • Membrane: 10% (w/v) Egg lecithin+0.5% (w/v) cholesterol in dodecane • Acceptor: 0.05 MOPSO buffer at pH 6.5
The liquid handling is done with a TECAN RSP150 pipetting robot. The drug analysis is based on UV spectroscopy. All samples are transferred into 96 well UV plates. A SpectralMax 190 UV plate reader is used to collect the UV spectras.
The pipetting steps can be divided into four parts: 1. Dilution of stock solutions and filtration, 2. Preparation of reference and PAMPA PSR4p sandwich, 3. Transfer of acceptor solutions into UV plate, 4. Transfer of donor solutions into UV plate. The PAMPA PSR4p assay contains information about the sample precipitation in the donor buffer UV spectras of the sample, read at the start of the assay (t-start: reference) and at the end (t-end: donor, acceptor) allow the determination of a sample distribution in donor, membrane and acceptor. Because of the known permeation time (t-end, t-start) a permeation constant can be retrieved.

The next series is described as follows: Equilibrium solubility. The conditions noted are these: for solubility at 24 h: 21 °C, aqueous buffer, thermodynamic from solid. The series is classed as physicochemical. The protocol:
Method Description Equilibrium Solubility
[…] A known amount of drug, generally 1–2 mg, was added to 250 μl of buffer (glass tubes), and the resulting suspension was stirred for 2 h (21° C.), after 5 minutes of sonification. The pH of the solution was checked and corrected if necessary (in case of pH correction, the solution was once more shaken and equilibrated), and after 24 h the suspension was filtered through a 0.65-μm filter. The filtered solution was then assayed by HPLC to determine the drug concentration. In cases where the drug had completely dissolved in the buffer, the value for equilibrium solubility was assumed to be higher than the value determined by HPLC and was reported as such. Stock solutions (˜1 mg/ml) in DMSO were used in the preparation of a calibration curve in the related buffer using HPLC analytics.

[3] abbreviates: buffer 0.05 M Phosphate, pH 6.5 (EP 1 035 115) / pH 6.7 (Compound I-2).

Converted amounts (≈) assume the structure as drawn.

T1 sequence (P25103 whole entry): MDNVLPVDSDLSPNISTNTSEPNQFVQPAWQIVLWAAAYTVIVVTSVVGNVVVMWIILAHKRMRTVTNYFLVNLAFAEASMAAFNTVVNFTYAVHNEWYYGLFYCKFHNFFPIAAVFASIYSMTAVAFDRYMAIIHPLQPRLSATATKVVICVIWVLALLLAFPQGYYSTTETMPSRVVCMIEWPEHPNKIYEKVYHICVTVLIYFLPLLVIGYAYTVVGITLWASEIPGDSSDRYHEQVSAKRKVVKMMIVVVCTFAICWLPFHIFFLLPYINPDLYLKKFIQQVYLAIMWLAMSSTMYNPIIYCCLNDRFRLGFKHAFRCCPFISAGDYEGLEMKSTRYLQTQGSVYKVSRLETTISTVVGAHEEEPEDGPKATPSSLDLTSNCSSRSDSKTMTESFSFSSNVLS

In the case of `Cc1ccccc1-c1cc(N2CC[N+](C)([O-])CC2)ncc1N(C)C(=O)C(C)(C)c1cc(C(F)(F)F)cc(C(F)(F)F)c1` [Compound I-1, 2-(3,5-Bis-trifluoromethyl-phenyl)-N-methyl-N-[6-(4-methyl-4-oxy-piperazin-1-yl)-4-o-tolyl-pyridin-3-yl]-isobutyramide], the Ki at human NK1 receptors is 1 nM. Also, the “metabolic stability in vitro in microsomes” value in series [1] is recorded as “higher metabolic stability”.
For the compound `CN1CCN(c2cc(-c3ccccc3CO)c(N(C)C(=O)C(C)(C)c3cc(C(F)(F)F)cc(C(F)(F)F)c3)cn2)CC1` [Compound I-2, 2-(3,5-Bis-trifluoromethyl-phenyl)-N-[4-(2-hydroxymethyl-phenyl)-6-(4-methyl-piperazin-1-yl)-pyridin-3-yl]-N-methyl-isobutyramide], at human NK1 receptors, the Ki is 0.794 nM. Besides, in series [2], the “permeation speed compared with the corresponding compound of EP 1 035 115” value is “three times higher”, the Acceptor (sample distribution) came out at 3%, the Donor (sample distribution) is 26% and the Membrane (sample distribution) stood at 72%. Moreover, in series [2], the “PE (permeation constant)” value is 1.81 cm/s × 10^−6 and the PE class entry is “high”. Further, the “solubility, fold higher than the compared compound disclosed in EP 1035 115” value in “Equilibrium solubility” was 8 fold. Besides, the solubility at 24 h in the series “Equilibrium solubility” (setting [3]) stood at 8 µg/mL (≈ 13.5 µM). The same compound showed a solubility at 24 h in the series “Equilibrium solubility” (buffer 0.15 M Citrate, pH 4.1) of 200 µg/mL (≈ 336 µM).
On to `Cc1ccccc1-c1cc(N2CCN(C)CC2)ncc1N(C)C(=O)C(C)(C)c1cc(C(F)(F)F)cc(C(F)(F)F)c1` [EP 1 035 115, 2-(3,5-bis-trifluoromethyl-phenyl)-N-methyl-N-[6-(4-methyl-piperazin-1-yl)-4-o-tolyl-pyridin-3-yl]-isobutyramide, reference compound], for which, in series [2], the Acceptor (sample distribution) was determined as 2%, the Donor (sample distribution) was 50%, the Membrane (sample distribution) worked out at 49% and the “PE (permeation constant)” value was 0.56 cm/s × 10^−6. In addition, the PE class entry in series [2] is reported as “medium”. The same compound registered a solubility at 24 h in “Equilibrium solubility” (setting [3]) of 1 µg/mL (≈ 1.73 µM). In “Equilibrium solubility” (buffer 0.15 M Citrate, pH 4.1), this compound registered a solubility at 24 h of 26 µg/mL (≈ 44.9 µM).
